Consider seven compounds from PubChem BioAssay (NCI).

Experiment in all cases: inhibition of tumour cell growth, NCI panel, 48 h
Test [1] deals with CCRF-CEM leukemia.
The test system of test [2] is PC-3 prostate.
For test [3], the system named is RPMI-8226 leukemia.
For test [4], the system named is EKVX NSCLC.
The subject of test [5] is BT-549 breast.
Test [6] concerns SNB-19 CNS.
In test [7] the test system is U251 CNS.
The subject of test [8] is UACC-257 melanoma.
Test [9] concerns OVCAR-4 ovarian.
Test [10] has as its system KM12 colon.

Each structure is given as a SMILES string. “And” between values parts separate entries of the source, which are not always exact repeats. Identical values can stand only once.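 Interpolation was linear, between the two tested concentrations surrounding the appropriate level; five concentrations were tested over 48 hours in 96-well plates. Abbreviation: GI50, concentration required for 50% inhibition of growth. TGI: concentration producing complete growth inhibition.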

Take `N#Cc1c(N)nc(N2CCOCC2)c(C#N)c1-c1c(Cl)cccc1Cl`: the GI50 is 4.91 µM in test [1]; 5.64 µM in [2]; 4.41 µM in test [3]; 7.92 µM in test [4]; 7 µM in test [5]; 6.09 µM in test [6]. Further, the GI50 is 3.89 µM in test [7], 5.16 µM in test [8], 13.1 µM in test [9] and 6.42 µM in test [10]. In addition, the TGI is 46.6 µM in test [1]; 31.1 µM in [2]; 47.5 µM in [3]; greater than 100 µM in test [4]; 79.7 µM in test [5]; 25.6 µM in test [6]. Further, the TGI in [7] was 18.5 µM; in test [8], 30.4 µM; in [9], greater than 100 µM; in test [10], 77.8 µM.

For `COc1ccc2c(c1)nnc1c3cccnc3[nH]c21`, the GI50 in test [1] is 0.0372 µM; in [2], 1.42 µM; in [3], 0.725 µM and 0.487 µM; in test [4], 2.82 µM and 6.62 µM; in test [5] it was 3.43 µM and 3.26 µM; in [6], 7.61 µM and 9.99 µM. Moreover, the GI50 was 0.929 µM and 0.987 µM in [7]; 7.49 µM and 1.91 µM in test [8]; 1.41 µM and 2.58 µM in test [9]; 1.22 µM and 1.92 µM in [10]. For the same compound, the TGI was greater than 100 µM in test [1]; greater than 100 µM in test [2]; 2.98 µM and 5.53 µM in test [3]; 50 µM and > 100 µM in test [4]; 15 µM and 20.5 µM in test [5]; 18.7 µM and 33.4 µM in [6]. For the same compound, the TGI is 17.3 µM and 10.7 µM in [7]; 41 µM and 10.7 µM in test [8]; 16.2 µM and > 100 µM in test [9]; 5.89 µM and 13.4 µM in test [10].

On to `COc1cnccc1Nc1nc(-c2nn(Cc3c(F)cc(OCCO)cc3F)c3ccccc23)ncc1OC`, for which the GI50 is 0.946 µM in test [1]; 2.55 µM in test [2]; 2.19 µM in test [3]; 13.5 µM in test [4]; 6.51 µM in test [5]; 2.23 µM in [6]. The GI50 in test [7] is 1.59 µM; in test [8], 4.38 µM; in test [9], 1.74 µM; in test [10], 3.88 µM. The TGI is greater than 100 µM in test [1]; greater than 100 µM in [2]; 55.2 µM in [3]; 61.6 µM in [4]; 28.5 µM in [5]; 10.5 µM in [6]. For the same compound, the TGI turned out to be 3.76 µM in test [7], 17 µM in test [8], 3.68 µM in test [9] and 63.6 µM in test [10].

Regarding `CCOC(=O)/C=C1/SC(=Nc2ccc(C#N)cc2)N(Cc2ccco2)C1=O`, the GI50 was 3.17 µM in [1]; 3.11 µM in test [2]; 2.4 µM in test [3]; 5.66 µM in test [4]; 10.8 µM in test [5]; 3.83 µM in [6]. The GI50 in test [7] is 2.07 µM; in [8], 5.34 µM; in [9], 2.74 µM; in test [10], 2.13 µM. Also, the TGI in test [1] was greater than 100 µM; in [2], 9.96 µM; in [3], 7.46 µM; in [4] it was 30.2 µM; in test [5], 52.6 µM; in test [6], 13.8 µM. Besides, the TGI in [7] was 4.06 µM; in test [8], 18.4 µM; in test [9], 11.2 µM; in [10], 5.01 µM.

Regarding `NS(=O)(=O)c1ccc(N=Nc2c[nH]c(=O)c(O)c2)cc1`, the TGI in test [1] was 44.1 µM; in test [2], greater than 100 µM; in test [3] it was greater than 100 µM; in test [4], greater than 100 µM; in [5] it was greater than 100 µM; in [6], greater than 100 µM. Further, the TGI was 46.3 µM in test [7], greater than 100 µM in test [8], greater than 100 µM in test [9] and greater than 100 µM in test [10].

Turning to `CN1CCN(c2ccc(NC3=CC(=O)c4ncncc4C3=O)cc2)CC1`, the GI50 was 0.331 µM in test [1]; 0.289 µM in test [2]; 0.261 µM in test [3]; 0.56 µM in test [4]; 1.6 µM in test [5]; 1.52 µM in test [6]. Besides, the GI50 in [7] is 0.722 µM; in [8] it was 0.177 µM; in test [9], 0.147 µM; in test [10] it was 1.67 µM. Besides, the TGI in test [1] was greater than 100 µM; in test [2], 1.14 µM; in [3], 0.75 µM; in test [4] it was 2.15 µM; in test [5], 3.04 µM; in test [6], 2.93 µM. Besides, the TGI in [7] is 1.94 µM; in [8], 0.357 µM; in [9], 0.28 µM; in [10] it was 4.35 µM.

In the case of `COc1ccc(-c2[nH]ncc2Nc2cc(OC)c(OC)c(OC)c2)cc1`, the GI50 in test [1] is 1.5 µM; in [2], 3.31 µM; in test [3] it was 1.38 µM; in test [4], 1.93 µM; in test [5], 9.99 µM; in test [6], 4.86 µM. For the same compound, the GI50 in [7] was 2.21 µM; in [8], 34 µM; in test [9] it was 5.01 µM; in [10], 0.63 µM. Further, the TGI is 19.4 µM in test [1]; greater than 100 µM in test [2]; 5.04 µM in test [3]; greater than 49.4 µM in test [4]; greater than 89.6 µM in test [5]; greater than 100 µM in [6]. Further, the TGI is greater than 100 µM in test [7], greater than 100 µM in test [8], greater than 100 µM in [9] and 22.7 µM in test [10].
